Test results reported in patent US8895753B2, “S1P receptor modulating agent” (Meiji Seika Pharma Co., Ltd., priority 2011, dated 2014).

Assays:
Human S1P3 receptor = Human S1P3 receptor (Homo sapiens, UniProt Q99500); assay: Agonist activity at a S1P3 receptor (reporter assay, EDG3-Galpha15-NFAT-bla HEK293T cells); type: cell-based
Protocol: Human S1P3 receptor gene recombinant EDG3-Galpha15-NFAT-bla HEK293T cells (Life Technologies Japan Ltd.) were plated into a 384-well clear bottom black plate treated with poly-D-lysine at a density of 1000 cells/32 μL/well, and the plate was cultured at 37° C. in a 5% CO2 incubator for 16-24 hours. A culture medium containing each test compound prepared as a 5× concentrate was added at 8 μL/well, and the plate was incubated at 37° C. in a 5% CO2 incubator for 5 hours. The substrate (LiveBLAzer™-FRET B/G substrate (CCF4-AM), Life Technologies Japan Ltd.) was prepared as a 6× concentrate was added at 8 μL to each well, and the plate was incubated at room temperature for 2 hours in the dark. The fluorescence intensity of the test samples was measured using a bottom-reading fluorescence microplate reader at one excitation wavelength and 2 wavelengths for fluorescence emission (Ex409 nm, Em460 nm, Em530 nm). The intensity ratio of fluorescence at 460 nm/530 nm was calculated for the compound at each well. The maximum response ratio confirmed from the dose response of S1P was expressed as 100%. The concentration of test compounds required to stimulate 50% of its maximal activation was computed as EC50 (nM).

blood lymphocytic cells = assay: Suppressive effect on circulating lymphocytic cells in a rat; type: in vivo; settings: 6 hours after administration
Protocol: Under anesthesia, a femoral artery was cannulated in a 7-11-week old male SD rat (Charles River Laboratories Japan Inc.) that had been reared for more than one week. A vehicle (in case of intravascular administration, 10% PEG300-0.01 M KOH saline was used, and in case of oral administration, 0.5% hydroxymethyl cellulose solution was used) or a test compound was administered intravascularly or by gavage administration. Right before the administration or 2, 4, 6 hours after the administration, the number of blood lymphocytic cells was counted by using an automated hematology analyzer XT-1800i or XT-2000i (Sysmex). The count of lymphocytic cells right before the administration was regarded as 100%, and the dose of the test compound that reduced blood lymphocytic cells by 50% of vehicle-treated group at the point of 6 hours after the administration was calculated as ED50 (mg/kg body weight).

[1] = test system: electrocardiogram / monophasic action potential (MAP); assay: Evaluation of cardiovascular system in a guinea pig; type: in vivo; settings: anesthetized guinea pig, 0.1 mg/kg body weight, infusion
Description: Under anesthesia with 0.5 to 1% of halothane, to a male Hartley guinea-pig (Japan SLC, Inc.) that had been reared for more than one week, a catheter for administration of a drug solution was placed into the left jugular vein, a monophasic action potential (MAP) measurement/pacing catheter was placed into the endothelial lining of the right ventricle, a catheter for measuring blood pressure was placed into the left carotid artery, and the measurement of body surface electrocardiogram (lead II) was conducted. The drug solution was infused for 10 minutes and the measurement was carried out over 60 minutes. Also, 5, 10, 15, 20, 30, 45 and 60 minutes after the administration of the drug solution, pacing was performed (200, 240, 300 bpm), and monophasic action potential (MAP) was measured.

[2] = test system: collagen-induced arthritis; assay: Collagen-induced arthritis model; type: in vivo; settings: DBA/1JN mouse, oral once daily for 4 weeks
Protocol: A solution of Type II collagen derived from bovine and Freund's complete adjuvant were mixed to prepare an emulsion. This emulsion was used to elicit collagen-induced arthritis in a 7-week-old female DBA/1JN mouse. The initial sensitization was carried out by subcutaneous administration of the emulsion in the tail of the mouse at a dose of 150 μg/100 μL/body. 21 days after the initial sensitization, a freshly prepared collagen emulsion solution was administered subcutaneously in the tail of the mouse at a dose of 100 μg/100 μL/body as a secondary sensitization. The mouse prepared in this procedure was used as the collagen-induced arthritis model. A compound suspended in 0.5% hydroxymethyl cellulose solution was orally administered by force once daily for 4 weeks following the additional second sensitization. Pathological scores including joint symptoms and the like were measured, and the results compared to the vehicle-treated group, from which the efficacy of the compound was evaluated.

[3] = test system: experimental autoimmune encephalomyelitis; assay: Experimental autoimmune encephalomyelitis model; type: in vivo; settings: SJL/J mouse, orally once daily at 1 mg/kg body weight or more
Protocol: An emulsion of PLP139-151/CFA was subcutaneously administered to the upper dorsal region and in the tail of an 8-week-old female SJL/J mouse at a dose of 100 μL/body. At 2 hours and 24 hours after the administration, pertussis toxin was peritoneally administered at a dose of 100 μL/body. Thus, the mouse prepared in this procedure was used as an experimental autoimmune encephalomyelitis model. […] The compound suspended in a solution of 0.5% hydroxypropyl methylcellulose was orally administered by force once daily. The changes in pathological score and body weight were recorded and the results compared to the vehicle-treated group, from which the efficacy of the compounds was evaluated.

enterobacterium = assay: Stability against enterobacterium (feces / cecum homogenates); type: in vitro ADME; settings: cynomolgus monkey feces and rat cecum homogenates, 3 and 30 μM, 37° C., 24 hours; all conditions
Protocol: A culture medium was added to fresh feces of a cynomolgus monkey and rat cecum to prepare homogenates. To a homogenate was added the compound of the Example 2, or 1-{4-[5-(4-isopropoxyphenyl)-1,2,4-oxadiazol-3-yl]benzyl}azetidine-3-carboxylic acid (the compound of the Example 29 of Non-Patent Document 5) adjusted at a concentration of 3 and 30 μM, and the mixture was anaerobically cultured at 37° C. for 24 hours. After the cultivation, the concentration of the residual compound in the culture medium was measured on LC-MS.

electrocardiogram = assay: Evaluation of electrocardiogram in a rat (under anesthesia); type: in vivo; settings: anesthetized rat, intravenous 0.1 mg/kg body weight
Protocol: Under anesthesia, femoral artery was cannulated in a 7-11-week-old male SD rat (Charles River Laboratories Japan Inc.) that had been reared for more than one week, connected to a polygraph (NIHON KODEN) via a pressure transducer. Without consciousness, a vehicle (dimethylsulfoxide) or a test compound was intravenously administered. After the administration, blood pressure, the heart rate, and electrocardiogram were monitored for about 10 minutes.

Sequence of Human S1P3 receptor (Q99500 whole entry): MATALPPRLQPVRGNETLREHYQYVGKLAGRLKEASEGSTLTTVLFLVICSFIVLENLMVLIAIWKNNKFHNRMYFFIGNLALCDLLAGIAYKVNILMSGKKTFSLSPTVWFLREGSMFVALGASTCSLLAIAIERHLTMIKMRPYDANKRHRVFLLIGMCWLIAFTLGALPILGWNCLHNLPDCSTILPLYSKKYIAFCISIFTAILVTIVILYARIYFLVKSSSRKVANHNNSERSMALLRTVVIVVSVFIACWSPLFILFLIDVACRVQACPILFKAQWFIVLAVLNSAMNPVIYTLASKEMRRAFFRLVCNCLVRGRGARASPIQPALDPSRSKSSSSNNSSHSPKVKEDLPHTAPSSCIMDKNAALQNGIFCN

CC(C)Oc1ccc(-c2cnc(-c3ccc(CN4CC(C(=O)O)C4)cc3)s2)cc1 [Example 2, 1-(4-(5-(4-isopropoxyphenyl)thiazol-2-yl)benzyl)azetidine-3-carboxylic acid]
EC50 (Human S1P3 receptor): ≥ 2 µM
ED50, dose reducing blood lymphocytic cells by 50% (blood lymphocytic cells; gavage administration): 0.13 mg/kg body weight
ED50, dose reducing blood lymphocytic cells by 50% (blood lymphocytic cells; vascular administration): 0.1 mg/kg body weight
MAP90 prolongation effect [1]: not observed
prolonged QT [1]: not observed
efficacy on pathological scores (joint symptoms) [2]: equally effective as Fingolimod
inhibition of pathological scores [3]: significantly inhibit
residual compound after anaerobic culture with homogenate (enterobacterium): remained almost completely intact
duration of continuous cardiac arrhythmia (AV block) (electrocardiogram): < 10 s

CC(C)Oc1ccc(-c2cnc(-c3ccc(CN4CC(C(=O)O)C4)cc3)s2)cc1Cl [Example 3, 1-(4-(5-(3-chloro-4-isopropoxyphenyl)thiazol-2-yl)benzyl)azetidine-3-carboxylic acid]
EC50 (Human S1P3 receptor): ≥ 2 µM
ED50, dose reducing blood lymphocytic cells by 50% (blood lymphocytic cells; gavage administration): 0.15 mg/kg body weight
ED50, dose reducing blood lymphocytic cells by 50% (blood lymphocytic cells; vascular administration): 0.016 mg/kg body weight
